In patent US20220257617A1, “COMPOSITIONS AND METHODS FOR KELOIDLESS HEALING” (priority 2017, published 2022):

Tests used:
NIH 3T3 cells = experiment: Col1a1/Col3a1 mRNA expression in dermal fibroblasts (qRT-PCR); type: cell-based, mouse; conditions: for collagen transcription (Col1a1/Col3a1 mRNA): NIH 3T3 stimulated with 1 μM S1P for 24 hours in presence of 10 μM inhibitor
Method: Mouse dermal fibroblast NIH 3T3 cells were cultured in DMEM. To analyze the production of collagens, ascorbic acid 2-phosphate (Sigma-Aldrich) was added in culture medium to 0.2 mM of final concentration.
We performed sCA preparation as previously published (23). We mixed 4 μl of 1M CaCl2) with 2 μg of plasmid DNA in 1 mL of an inorganic solution (NaHCO3; 44 mM, NaH2PO4; 0.9 mM, CaCl2); 1.8 mM, pH 7.5), then incubated at 37° C. for 30 min. The solution was centrifuged at 12,000 rpm for 3 min, and the pellet was dissolved with DMEM. We sonicated the solution in a water bath for 10 min to generate sCA. Cells were cultured in 6 well plate for 24 hours, then incubated with sCA-DMEM solution for 6 hours. We changed medium into DMEM with 10% FBS and incubated for additional 48 hours, then collected for total RNA isolation.
Total RNA was extracted using TRIzol® Regent (Invitrogen). cDNA was then synthesized using High Capacity cDNA Reverse Transcription Kits (Applied Biosystems, Foster City, Calif.). qRT-PCR was performed using an CFX96 Real-Time System (Bio-Rad, Hercules, Calif.) with PowerUp SYBR Green master mix (Bio-Rad). GAPDH served as the internal control. Relative expression was calculated using the 2-ΔΔCt method with correction for different amplification efficiencies.

mouse excisional wound = experiment: Mouse excisional wound splinting model, wound area analysis; type: in vivo
Description: Mouse excisional wound splinting model were generated as previously published 1. Mice were anesthetized using isoflurane and removed dorsal hair. Two of 5 mm-diameter full-thickness skin punches were created symmetrically besides the midline. 12 mm diameter circle-shaped silicon lubber splints in which 6 mm diameter circles were punched in center were used for wound splinting. […] were fixed with instant-bonding adhesive and sutures around wounds. After application with any ointment, dressings were performed with Tegaderm (3M, Maplewood, Minn.). S1P was purchased from Sigma-Aldrich (Carlsbad, Calif.). 1 mM S1P in 4% bovine serum albumin was prepared with sonication, diluted 1000-fold for 1 μM ointment or 10-fold for 100 μM ointment with Aquaphor® and mixed well. We generated sCA with 100 ug plasmid DNA and dissolved the sCA pellet with 50 μl PBS. Then we mixed all of the solution into 200 μl of Aquaphor®. We used 250 μl ointment for 4 wounds of 2 mice. Digital photo images were analyzed using GIMP 2.8 software. The pixels of wound area were normalized by those of inside area of silicon splint. Then, the ratios devised by wound area at day 0 were calculated.

wound tissue = experiment: Immunohistochemistry of wounds (F4/80, Ki67, CD34); type: in vivo, mouse; conditions: 1 uM S1P topical vs vehicle, day 5 after punch
Description: Mouse excisional wound splinting model were generated as previously published 1. Mice were anesthetized using isoflurane and removed dorsal hair. Two of 5 mm-diameter full-thickness skin punches were created symmetrically besides the midline. 12 mm diameter circle-shaped silicon lubber splints in which 6 mm diameter circles were punched in center were used for wound splinting. […] were fixed with instant-bonding adhesive and sutures around wounds. After application with any ointment, dressings were performed with Tegaderm (3M, Maplewood, Minn.). We performed H&E, Masson's trichrome staining on paraffin-embedded sections. We used primary antibodies against F4/80, Ki67 and CD34. Immunostaining was developed with VECTASTAIN Universal Elite ABC Kit (Vector, Burlingame, Calif.). We purchased all antibodies from Abcam (Cambridge, UK). We analyzed the results using ImageJ.

[1] = test system: inflammatory cells in wound; experiment: Flow cytometry of cells separated from mouse wound tissues; type: in vivo; conditions: 1 uM S1P topical vs vehicle
Description: Mouse excisional wound splinting model were generated as previously published 1. Mice were anesthetized using isoflurane and removed dorsal hair. Two of 5 mm-diameter full-thickness skin punches were created symmetrically besides the midline. 12 mm diameter circle-shaped silicon lubber splints in which 6 mm diameter circles were punched in center were used for wound splinting. […] were fixed with instant-bonding adhesive and sutures around wounds. After application with any ointment, dressings were performed with Tegaderm (3M, Maplewood, Minn.). We performed cell separation from mouse wound tissues as previously published^4. We digested the tissues cut into small pieces in DMEM with 10% FBS, 1.2 mg/ml hyaluronidase (Sigma Aldrich), 2 mg/ml collagenase (Sigma Aldrich), and 0.2 mg/ml DNase I (Sigma Aldrich) at 37° C. for 90 min. Cell pellets were resuspended in PBS with 2% FBS, incubated with anti-CD16/32 antibody (Biolegend, San Diego, Calif.) for 5 min to block Fcγ receptors. For inflammatory cell recruitment analysis, we stained with phycoerythrin (PE)-conjugated anti-Gr-1, allophycocyanin (APC)-conjugated anti-CD3a, PE/CY7 conjugated anti-CD4, or fluorescein isothiocyanate (FITC)-conjugated anti-CD8a antibody (CiteAb, Bath, UK) at 4° C. for 20 min. […] Cells were analyzed with FACSDiva (BD, San Jose, Calif.).

scar = experiment: Scar thickness analysis (Masson's trichrome); type: in vivo, mouse; conditions: 1 μM S1P topical vs vehicle, at the point of epithelization
Description: We performed H&E, Masson's trichrome staining on paraffin-embedded sections. We used primary antibodies against F4/80, Ki67 and CD34. Immunostaining was developed with VECTASTAIN Universal Elite ABC Kit (Vector, Burlingame, Calif.). We purchased all antibodies from Abcam (Cambridge, UK). We analyzed the results using ImageJ. We calculated scar thickness with Masson's trichrome stain images using ImageJ.

scar neovasculature = experiment: Neovasculature analysis in scars; type: in vivo, mouse; conditions: S1P treatment vs vehicle, Balb/c mice, at the point of epithelization
Description: We performed neovasculature analysis using standard approaches.

[2] = NIH 3T3 stimulated with exogenous S1P for 24 hours

Row | Structure (SMILES) | collagen transcription (Col1a1/Col3a1 mRNA) (NIH 3T3 cells) | wound closure (mouse excisional wound; 1 μM S1P topical treatment vs control vehicle) | wound closure (mouse excisional wound; 100 μM S1P treatment, Balb/c mice) | wound closure (mouse excisional wound; high concentration S1P (100 PM) vs vehicle, C57BL6/J mice) | angiogenesis (CD34 immunohistochemistry) (wound tissue) | cell proliferation (Ki67) (wound tissue) | recruitment of granulocytes (Gr-1 positive cells) ([1]; day 2 after punch) | percentage of T cells in wounds ([1]; day 5 after punch) | transcription of Col1a1 (NIH 3T3 cells; [2]) | transcription of Col3a1 (NIH 3T3 cells; [2]) | scar thickness (scar) | neovasculatures in scars (scar neovasculature)
1 | Cc1nn(C)c2nc(NNC(=O)Nc3cc(Cl)nc(Cl)c3)cc(C(C)C)c12 [JTE013, reference compound] | increased | – | – | – | – | – | – | – | – | – | – | –
2 | CCCCCCCCc1cccc(NC(=O)[C@H](N)COP(=O)(O)O)c1 [VPC23019, reference compound] | increased | – | – | – | – | – | – | – | – | – | – | –
3 | CCCCCCCCCCCCC/C=C/[C@@H](O)[C@@H](N)COP(=O)(O)O [S1P, sphingosine-1-phosphate] | – | significantly promoted | significantly obstructed | no difference | promoting angiogenesis | no effect | does not influence | did not increase | inhibited | inhibited | statistically significant reduction in scar thickness were not obtained | confirmed the development of neovasculatures
